These results are taken from patent US20160108381A1, “DNA POLYMERASES AND MUTANTS THEREOF” (LIFE TECHNOLOGIES CORPORATION, priority 2001, published 2016).

Holding throughout (assay): Steady-state kinetics, DNA- and RNA-dependent polymerase activity
What all share (assay type): biochemical

In assay [1] the target is T1, Bacillus caldolyticus EA1.3 (B.EA1) DNA polymerase, SEQ ID NO:20 ([Bacillus] caldolyticus, UniProt Q6X9S1).
T1 sequence (Q6X9S1 with tags, fused parts or gaps): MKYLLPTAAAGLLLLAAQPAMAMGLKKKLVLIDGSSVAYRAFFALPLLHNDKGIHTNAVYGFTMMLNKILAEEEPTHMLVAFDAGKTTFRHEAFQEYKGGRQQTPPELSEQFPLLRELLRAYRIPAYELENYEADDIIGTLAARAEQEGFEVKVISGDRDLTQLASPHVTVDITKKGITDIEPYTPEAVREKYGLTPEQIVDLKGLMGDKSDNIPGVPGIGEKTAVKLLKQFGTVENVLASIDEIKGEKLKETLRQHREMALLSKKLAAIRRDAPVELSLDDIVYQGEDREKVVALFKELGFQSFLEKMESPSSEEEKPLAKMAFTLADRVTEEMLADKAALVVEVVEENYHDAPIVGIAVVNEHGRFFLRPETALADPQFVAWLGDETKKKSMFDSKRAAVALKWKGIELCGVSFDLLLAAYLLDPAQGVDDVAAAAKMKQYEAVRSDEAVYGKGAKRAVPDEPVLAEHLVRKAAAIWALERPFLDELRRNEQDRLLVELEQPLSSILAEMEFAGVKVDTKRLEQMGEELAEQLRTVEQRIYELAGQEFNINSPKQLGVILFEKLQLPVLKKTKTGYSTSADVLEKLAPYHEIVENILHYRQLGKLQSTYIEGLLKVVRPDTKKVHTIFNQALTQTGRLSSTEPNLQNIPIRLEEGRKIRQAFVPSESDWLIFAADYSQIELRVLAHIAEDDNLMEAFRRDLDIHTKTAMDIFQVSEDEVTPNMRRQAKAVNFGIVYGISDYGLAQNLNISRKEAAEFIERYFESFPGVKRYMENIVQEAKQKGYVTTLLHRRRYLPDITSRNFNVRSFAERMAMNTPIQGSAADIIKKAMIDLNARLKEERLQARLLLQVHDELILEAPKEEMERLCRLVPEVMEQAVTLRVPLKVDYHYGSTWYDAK
The following applies: Table 40; dTTP; 55 °C. On the procedure: Purification of CA2, B.EA1, Rt41A, Dth, Tok13B, Tok7B, and Rt69B DNA polymerase. E. coli cells (BL21SI, Invitrogen Corporation, Carlsbad, Calif.) bearing the plasmid pET26B with the gene for CA2, B.EA1, Rt41A, or Dth DNA polymerase were grown in 2.8-1 Fembach flasks in LB broth containing no salt and 50 μg/ml kanamycin at 37° C. After the culture reached an A590 of 1.2, expression of DNA polymerase was induced with 0.3 M NaCl for 3 hr. Cells were harvested by centrifugation and stored at −70° C. E. coli cells (BL21AI) bearing the plasmid pET14B with the gene for Tok13B, Tok7B, or RT69B DNA polymerase were grown in 2.8-1 Fembach flasks in LB broth containing 50 μg/ml ampicillin at 37° C. After the culture reached an A590 of 1.0, expression of DNA polymerase was induced by the addition of 0.2% arabinose for 3 hr. Cells were harvested by centrifugation and stored at −70° C.
(§1) Steady-state kinetic measurements.

Assay [2] addresses T2, Thermotoga neapolitana (Tne) DNA polymerase, mutated to eliminate 3′ to 5′ and 5′ to 3′ exonuclease activity (Thermotoga neapolitana, UniProt B9K7T2).
T2 construct: mutated to eliminate 3'-5' and 5'-3' exonuclease activity as in US 6,306,588 (recalled, unsure: D137A and D323A)
On the procedure:
(§2) Thermotoga neapolitana (Tne) DNA polymerase mutated to eliminate 3′ to 5′ and 5′ to 3′ exonuclease activity was cloned, engineered and purified as described in U.S. Pat. No. 6,306,588. SuperScript II reverse transcriptase (SS II RT) was from Invitrogen Corporation, Carlsbad, Calif.
as §1
(§3) The catalytic rate constant kcat and the Michaelis constant KM were determined for both the DNA-dependent and RNA-dependent polymerase activities for the polypeptides of the invention and these parameters were compared to those of Tne DNA polymerase enzyme and […]™ II reverse transcriptase. […]

Assay [3] addresses SuperScript II reverse transcriptase (SSII, SS II RT), a modified M-MLV reverse transcriptase (Moloney murine leukemia virus isolate Shinnick, UniProt P03355). The method, then: as §2, §1, §3
[4] abbreviates: Table 34, RNA template, 2 mM MgCl2, 45 °C per footnote.
Setting [5] is: read-out: Km RNA (dTTP), Table 34, RNA template, 2 mM MgCl2, 45 °C per footnote.

SMILES strings stand for the structures.

T2 sequence (B9K7T2 entry or part of it, stated change not applied): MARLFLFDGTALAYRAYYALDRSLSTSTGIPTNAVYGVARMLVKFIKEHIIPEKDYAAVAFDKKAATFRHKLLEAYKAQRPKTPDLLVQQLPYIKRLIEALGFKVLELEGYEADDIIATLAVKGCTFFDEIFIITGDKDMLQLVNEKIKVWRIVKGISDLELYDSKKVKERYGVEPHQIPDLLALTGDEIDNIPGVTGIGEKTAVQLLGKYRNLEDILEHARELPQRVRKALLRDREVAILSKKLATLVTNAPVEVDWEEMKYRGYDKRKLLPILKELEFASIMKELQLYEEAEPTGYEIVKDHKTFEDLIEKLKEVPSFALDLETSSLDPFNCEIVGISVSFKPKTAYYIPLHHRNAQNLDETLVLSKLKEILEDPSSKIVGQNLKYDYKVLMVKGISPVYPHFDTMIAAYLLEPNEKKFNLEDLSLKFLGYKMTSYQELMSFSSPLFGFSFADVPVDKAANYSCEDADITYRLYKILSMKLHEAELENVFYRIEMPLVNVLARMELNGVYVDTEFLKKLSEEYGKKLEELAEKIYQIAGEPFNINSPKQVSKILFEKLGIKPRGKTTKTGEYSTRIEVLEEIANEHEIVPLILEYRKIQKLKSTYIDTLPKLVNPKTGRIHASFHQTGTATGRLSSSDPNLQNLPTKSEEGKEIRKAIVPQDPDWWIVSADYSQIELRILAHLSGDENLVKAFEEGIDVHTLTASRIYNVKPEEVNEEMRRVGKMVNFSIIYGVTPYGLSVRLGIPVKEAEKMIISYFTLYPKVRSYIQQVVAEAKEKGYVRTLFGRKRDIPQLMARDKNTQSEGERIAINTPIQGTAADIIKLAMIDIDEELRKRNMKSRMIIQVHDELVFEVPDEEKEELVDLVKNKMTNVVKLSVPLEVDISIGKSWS

As to `Cc1cn([C@H]2C[C@H](O)[C@@H](COP(=O)(O)OP(=O)(O)OP(=O)(O)O)O2)c(=O)[nH]c1=O` [dTTP], the “kCAT Ratio (RNA/DNA)” value in assay [1] was 0.59; in assay [2] (Table 40, 72 °C, RNA-DNA with dTTP over DNA-DNA with dGTP) it was 0.002; in assay [3] (Table 40, 37 °C, RNA-DNA with dTTP over DNA-DNA with dGTP) it was 2.8. The results for the “Kcat RNA (dTTP)” value in assay [2] (setting [4]) and in assay [3] (setting [4]) were 0.094 s⁻¹ and 14.5 s⁻¹, respectively. Also, the “kCAT RNA-DNA” value in assay [2] (Table 40, (rA)250•(dT)40, dTTP, 72 °C, mean ± SD) is 0.2 ± 0.04 s⁻¹; in assay [3] (Table 40, (rA)250•(dT) template-primer, dTTP, 37 °C, mean ± SD), 45 ± 18 s⁻¹. The Km in assay [2] (setting [5]) stood at 37 µM; in assay [3] (setting [5]) it was 17 µM.
